Experimental findings from patent US20200208108A1, “INTERFERON PRIMED PLASMACYTOID DENDRITIC CELLS” (AARHUS UNIVERSITET, priority 2017, published 2020) are described below.

Holding throughout (format): cell-based, human
Test [1] concerns HSPC-pDCs. Description: Phenotypic analysis of pDC-related and maturation surface markers by flow cytometry. The settings on record: priming from day 21, with IL-3. The method, then: (§1) HSPC-pDCs were cultured in RPMI-1640 medium with 10% heat inactivated FCS, 600 μg/mL L-glutamine, 200 U/mL penicillin and 100 μg/mL streptomycin, but depleted for growth factors used for the cultivation process. As described in individual figure legends, medium was supplemented with IFN-β (PBL Assay Science), IFN-γ (PeproTech) or both cytokines simultaneously (IFN-β+γ). After 24 (day 21+1) or 72 (day 21+3) hours, cells were washed in warm medium, and phenotypically or functionally characterized.
(§2) For functional characterization, cells were seeded in 96-well plates. During stimulation cells were kept in medium with 20 ng/mL IL-3. Twenty hours post stimulation supernatants were harvested and kept at −20° C. until cytokine quantifications. For phenotypic characterization, primed cells were seeded out in 48-well plates and stimulated for 24 hours before phenotypic analysis by flow cytometry.
Immunophenotypical analysis was performed using flow cytometry. Briefly, 2×10^5 cells were spun down and resuspended in PBS with 0.5% BSA and 0.09% NaN3. […] Fluorescence intensities were measured on a LSR Fortessa flow cytometer (Becton Dickinson) with four lasers (405, 488, 561 and 640 nm) and 18 photomultiplier (PMT) detectors. […] Data were analyzed using FlowJo software (version 10, Tree Star, Ashland, Oreg., USA). […]
(In general: In flow cytometry, cells or beads pass a laser one at a time.)

For test [2], the system named is HSPC-pDCs. Kind of test: IL-6 in supernatants after TLR7/TLR9 agonist stimulation (ELISA). The settings on record: separate priming; TLR7 and TLR9 agonists. The method, then:
as §1, §2
Protein levels of IL-6 in supernatants were evaluated using ELISA kits (Biolegend) following the manufacturers instructions.

For test [3], the system named is HSPC-pDCs. Kind of test: Functional type I IFN in supernatants after TLR7/TLR9 agonist stimulation (HEK-Blue IFN-α/β reporter). The settings on record: separate priming; TLR7 and TLR9 agonists. As to the method:
as §1, §2
Bioactive functional type I IFN was quantified in supernatants using the reporter cell line HEK-Blue™ IFN-α/β (Invivogen). The cell line was maintained in DMEM+GlutaMax™-I (Gibco®, Life Technologies), supplemented with 10% heat-inactivated FCS, 100 μg/mL streptomycin and 200 U/mL penicillin, 100 μg/mL normocin (InvivoGen), 30 μg/mL blasticidin (InvivoGen) and 100 μg/mL zeocin (InvivoGen). […] SEAP activity was assessed by measuring optical density (OD) at 620 nm on a microplate reader (ELx808, BioTEK). […]

With “IFN-γ: recombinant IFN-γ (PeproTech) used for priming”, the “expression levels of CD303 and CD304 on HSPC-pDCs after priming” value in test [1] was “improved”. Also, in test [2], the “secretion of IL-6 by primed HSPC-pDCs” value was “predominantly promoted”. In addition, in test [3], the “promotion of type I IFN response in comparison to IFN-β” value is “less effective”.
